Experimental data reported in patent US9029405B2, “5-(biphenyl-4-yl)-3-phenyl-1,2,4-oxadiazolyl derivatives as ligands on the sphingosine 1-phosphate(SIP)receptors” (Merck Serono S.A., priority 2010, dated 2015).
Counter-ions that a name gives are not always drawn. Like-named read-outs stand apart in the source and are kept apart here.

Key:
S1P1 [1] = target: T1, S1P1 (Homo sapiens, UniProt P21453); assay: S1P1 internalization assay in S1P1-U2OS cells (cell imaging); assay type: cell-based; parameters: host or cells: U2OS (human bone osteosarcoma epithelial cells); conditions: U2OS cells expressing S1P1-EGFP, 384-well format
Method: Cellular Functional Assays: Internalization of Sphinqosine-1-phosphate Receptor 1 (S1P1) in a Human Cell Line (U2OS) in a 384-Well Format Using a Cell Imaging Analysis.
The S1P1 internalization assay was performed in 384 well plates (Corning 384 black with clear bottom 3712) using S1P1-U2OS cells from BioImage (C039A), a human epithelial cell line (Human Bone Osteosarcoma Epithelial Cells). These cells expressed the human S1P1 Receptor fused to the green fluorescent protein (EGFP). A standard CMV promoter (cytomegalovirus promoter) controls the expression of S1P1-EGFP and continuous expression was maintained by addition of geneticin to the culture medium.
S1P1 Receptor desensitization induced the internalization of the membrane-localized S1P-EGFP fusion protein to endosomes, which can be monitored by cell imaging analysis.
The cells are plated in low serum medium (Dulbecco's Modified Eagle Medium (DMEM) with Glutamax-1 and high glucose, 1% Penicillin/Streptomycin, 1% Fetal Calf Serum (FCS), 0.5 mg/ml Geneticin) overnight.
The next day, S1P1-U2OS cells are incubated in 20 μl serum free medium (DMEM with Glutamax-1 and high glucose, 0.1% of fatty-acid free Bovin Serum Albumin (BSA), 10 mM, N′-2-Hydroxyethylpiperazine-N′-2 ethanesulphonic acid (HEPES) 1M) for 2 hours at 37° C./5% CO2. The cells are then treated with 4 μl compounds/agonists (6×/3% DMSO) for a total volume of 24 μl, and plates are incubated for 1 hour at 37° C./5% CO2.
S1P1-U2OS cells are fixed with 25 μl Paraformaldehyde 8% and stained with Hoechst 33345 dye (1:1000) for 20 minutes.
They were then washed 3 times with Phosphate Buffered Saline (PBS) and plates are sealed. The internalization of the receptor S1P1-EGFP is measured on Cellomics by calculating the “spot count per object” (“object” corresponds to nuclear and “spot” corresponds to S1P1-EGFP receptor). Internalization data were observed thanks to vHCS View and analyzed using Genedata® software.
Target sequence in this assay (P21453 whole entry): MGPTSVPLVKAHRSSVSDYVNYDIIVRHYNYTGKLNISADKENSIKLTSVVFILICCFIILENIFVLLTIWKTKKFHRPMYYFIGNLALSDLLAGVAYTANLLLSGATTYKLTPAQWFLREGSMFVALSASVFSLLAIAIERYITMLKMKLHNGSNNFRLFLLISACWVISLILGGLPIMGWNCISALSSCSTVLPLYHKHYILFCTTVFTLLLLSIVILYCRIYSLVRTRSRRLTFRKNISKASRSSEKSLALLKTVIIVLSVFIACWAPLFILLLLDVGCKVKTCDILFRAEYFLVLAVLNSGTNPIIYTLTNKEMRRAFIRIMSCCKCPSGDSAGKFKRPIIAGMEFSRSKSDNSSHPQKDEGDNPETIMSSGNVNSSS

S1P1 [2] = target: T1, S1P1; assay: Receptor binding assay, [33P]sphingosine 1-phosphate competition, membranes of CHO cells expressing S1P1
Method: (§1) Membranes were prepared from CHO cells expressing S1P1 or S1P3 for use in ligand binding studies. Cells were suspended in 50 mM TRIS, pH 7.4, 2 mM EDTA, 250 mM Sucrose (buffer A) and 1× Complete protease inhibitor cocktail (Roche), and disrupted at 4° C. by N2 decompression using a cell disruption bomb (Parr Instrument). Following centrifugation at 1000 RPM for 10 min at 4° C., the supernatant was diluted (2×) in buffer A and centrifuged again at 19000 RPM for 75 min at 4° C. The pellet was then suspended in 10 mM HEPES, pH 7.4, 1 mM EDTA, 250 mM Sucrose (Buffer B), and 1× Complete EDTA-free protease inhibitor cocktail and homogenized using a potter. Membranes were flash frozen in liquid N2 and stored at −80° C.
(§2) [33P]sphingosine 1-phosphate (3000 Ci/mmol; American Radiolabeled Chemicals, Inc.) was added to test compounds in 20% DMSO by competition. Membranes and WGA SPA beads (GE Healthcare) were added to give a final volume of 100 μl in 96-well plates or 50 μl in 384-well plates with assay concentrations of 30 pM or 15 pM [33P]sphingosine 1-phosphate (respectively for S1P1 or S1P3), 50 mM HEPES, pH 7.5, 5 mM MgCl2, 100 mM NaCl, 0.4% fatty acid-free BSA, 1-5 μg/well of proteins in 96-well plates vs 0.6-1 μg/well of proteins in 384-well plates and 100 μg/well of WGA SPA beads in 96-well plates vs 75 μg/well of WGA SPA beads in 384-well plates. Binding was performed for 60 min at RT on a shaker and bound radioactivity was measured on a PerkinElmer 1450 MicroBeta counter. Triplicate samples were averaged and normalized as percentage of inhibition relative to total binding (only DMSO in well) and non specific binding (1000-fold excess of unlabeled S1P). Binding data were analyzed using the GraphPad Prism program or Genedata software.
(§3) The “potency” or the “activity” of the compounds is determined by the Ki values as evaluated in one of the above described binding assay, 96 or 384 well plates.
Target sequence in this assay (P21453 whole entry, species assumed): as the sequence (P21453 whole entry) above

S1P3 = S1P3 (Homo sapiens, UniProt Q99500); assay: Receptor binding assay, [33P]sphingosine 1-phosphate competition, membranes of CHO cells expressing S1P3
Method: as §1, §2, §3

[3] = 96 well plate, read-out: S1P1 Binding Ki [M] (96 well plate)
[4] = 384 well plate, read-out: S1P1 Binding Ki [M] (384 well plate)
[5] = 96 well plate, read-out: S1P3 Binding Ki [M] (96 well plate)
[6] = 384 well plate, read-out: S1P3 Binding Ki [M] (384 well plate)

S1P3, sequence (Q99500 whole entry, species assumed): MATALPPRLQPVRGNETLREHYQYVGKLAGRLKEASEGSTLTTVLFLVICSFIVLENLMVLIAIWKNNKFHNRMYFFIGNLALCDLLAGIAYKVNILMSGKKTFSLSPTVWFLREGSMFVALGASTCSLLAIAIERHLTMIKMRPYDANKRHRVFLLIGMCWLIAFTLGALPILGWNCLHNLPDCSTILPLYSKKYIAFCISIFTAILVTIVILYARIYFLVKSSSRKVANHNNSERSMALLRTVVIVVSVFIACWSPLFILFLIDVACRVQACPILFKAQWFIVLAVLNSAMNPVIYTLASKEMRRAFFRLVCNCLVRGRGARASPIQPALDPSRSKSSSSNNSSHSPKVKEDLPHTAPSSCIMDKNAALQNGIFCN

Structure (SMILES) | EC50 (S1P1 [1]) [nM] | Ki (S1P1 [2]; [3]) [M] | Ki (S1P1 [2]; [4]) [M] | Ki (S1P3; [5]) [M] | Ki (S1P3; [6]) [M]
Cc1cc(-c2nc(-c3ccc([C@@H](C)NCC(=O)O)cc3)no2)ccc1-c1ccccc1C(F)(F)F [Example 8, N-[(1R)-1-(4-{5-[2-methyl-2′-(trifluoromethyl)biphenyl-4-yl]-1,2,4-oxadiazol-3-yl}phenyl)ethyl]glycine, hydrochloride salt] | 26.9 | 9.13e-10 | 3.68e-09 | > 2e-05 | 6.38e-06
COCc1cc(-c2nc(-c3ccc([C@@H](C)NCC(=O)O)cc3)no2)ccc1-c1ccccc1C [Example 9, N-[(1R)-1-(4-{5-[2-(methoxymethyl)-2′-methylbiphenyl-4-yl]-1,2,4-oxadiazol-3-yl}phenyl)ethyl]glycine, hydrochloride salt] | 4.34 | 1.75e-10 | 1.11e-09 | 7.7e-07 | 4.94e-07
CC[C@@H](N[C@H](C)c1ccc(-c2noc(-c3ccc(-c4ccccc4C)c(C(F)(F)F)c3)n2)cc1)C(=O)O [Example 11, (2R)-2-{[(1R)-1-(4-{5-[2′-methyl-2-(trifluoromethyl)biphenyl-4-yl]-1,2,4-oxadiazol-3-yl}phenyl)ethyl]amino}butanoic acid, hydrochloride salt] | 26 | – | 3.96e-09 | – | 2.32e-06
Cc1ccccc1-c1ccc(-c2nc(-c3cc(F)cc(CN[C@@H](CC(C)C)C(=O)O)c3)no2)cc1C(F)(F)F [Example 12, N-(3-fluoro-5-{5-[2′-methyl-2-(trifluoromethyl)biphenyl-4-yl]-1,2,4-oxadiazol-3-yl}benzyl)leucine, hydrochloride salt] | 28.9 | – | 2.58e-09 | – | 6.43e-07
Cc1ccccc1-c1ccc(-c2nc(-c3ccc(CN(C)[C@H](C(=O)O)C(C)C)c(F)c3)no2)cc1C(F)(F)F [Example 13, N-(2-fluoro-4-{5-[2′-methyl-2-(trifluoromethyl)biphenyl-4-yl]-1,2,4-oxadiazol-3-yl}benzyl)-N-methylvaline, hydrochloride salt] | 283 | – | 5.23e-09 | – | 1.53e-06
Cc1cc(-c2nc(-c3ccc(C(C)N(C)CC(=O)O)cc3)no2)ccc1-c1ccccc1C(F)(F)F (centres unmarked) [Example 14, N-methyl-N-[1-(4-{5-[2-methyl-2′-(trifluoromethyl)biphenyl-4-yl]-1,2,4-oxadiazol-3-yl}phenyl)ethyl]glycine, hydrochloride salt] | 86.2 | – | 4.78e-09 | – | > 2e-05
COCc1cc(-c2nc(-c3ccc(C(C)N(C)CC(=O)O)cc3)no2)ccc1-c1ccccc1C (centres unmarked) [Example 15, N-[1-(4-{5-[2-(methoxymethyl)-2′-methylbiphenyl-4-yl]-1,2,4-oxadiazol-3-yl}phenyl)ethyl]-N-methylglycine, hydrochloride salt] | 89.3 | – | 1.98e-09 | – | 5.68e-07
COCc1cc(-c2nc(-c3ccc(CNC(C)(C)C(=O)O)c(F)c3)no2)ccc1-c1ccccc1C [Example 16, N-(2-fluoro-4-{5-[2-(methoxymethyl)-2′-methylbiphenyl-4-yl]-1,2,4-oxadiazol-3-yl}benzyl)-2-methylalanine, hydrochloride salt] | 8.43 | – | 1.23e-09 | – | 7.2e-07

Results, then the molecule that gave them:

EC50 (S1P1 [1]) [nM] | Ki (S1P1 [2]; [3]) [M] | Ki (S1P1 [2]; [4]) [M] | Ki (S1P3; [5]) [M] | Ki (S1P3; [6]) [M] | Structure (SMILES)
21 | – | 2.01e-09 | – | 2.25e-06 | Cc1ccccc1-c1ccc(-c2nc(-c3ccc([C@H](C)N[C@H](C)C(=O)O)cc3)no2)cc1C(F)(F)F [Example 17, N-[(1S)-1-(4-{5-[2′-methyl-2-(trifluoromethyl)biphenyl-4-yl]-1,2,4-oxadiazol-3-yl}phenyl)ethyl]-D-alanine, hydrochloride salt]
116 | – | 1.03e-08 | – | 3.65e-06 | Cc1ccccc1-c1ccc(-c2nc(-c3ccc([C@H](C)N[C@@H](C)C(=O)O)cc3)no2)cc1C(F)(F)F [Example 18, N-[(1S)-1-(4-{5-[2′-methyl-2-(trifluoromethyl)biphenyl-4-yl]-1,2,4-oxadiazol-3-yl}phenyl)ethyl]-L-alanine, hydrochloride salt]
45.6 | – | 3.98e-09 | – | 2.56e-06 | Cc1ccccc1-c1ccc(-c2nc(-c3ccc([C@@H](C)N[C@@H](C)C(=O)O)cc3)no2)cc1C(F)(F)F [Example 19, N-[(1R)-1-(4-{5-[2′-methyl-2-(trifluoromethyl)biphenyl-4-yl]-1,2,4-oxadiazol-3-yl}phenyl)ethyl]-L-alanine, hydrochloride salt]
7.57 | 8.67e-10 | 1.63e-09 | 6.83e-06 | 2.27e-06 | Cc1ccccc1-c1ccc(-c2nc(-c3ccc([C@@H](C)N[C@H](C)C(=O)O)cc3)no2)cc1C(F)(F)F [Example 20, N-[(1R)-1-(4-{5-[2′-methyl-2-(trifluoromethyl)biphenyl-4-yl]-1,2,4-oxadiazol-3-yl}phenyl)ethyl]-D-alanine, hydrochloride salt]
11.2 | – | 2.19e-09 | – | 1.21e-06 | Cc1ccccc1-c1ccc(-c2nc(-c3ccc([C@H](C)NCC(=O)O)cc3)no2)cc1C(F)(F)F [Example 21, N-[(1S)-1-(4-{5-[2′-methyl-2-(trifluoromethyl)biphenyl-4-yl]-1,2,4-oxadiazol-3-yl}phenyl)ethyl]glycine, hydrochloride salt]
6.51 | 4.14e-10 | 1.72e-09 | 5.98e-07 | 4.7e-07 | Cc1ccccc1-c1ccc(-c2nc(-c3ccc([C@@H](C)NCC(=O)O)cc3)no2)cc1C(F)(F)F [Example 22, N-[(1R)-1-(4-{5-[2′-methyl-2-(trifluoromethyl)biphenyl-4-yl]-1,2,4-oxadiazol-3-yl}phenyl)ethyl]glycine, hydrochloride salt]
21.3 | – | 1.71e-09 | – | 7.05e-06 | Cc1cc(-c2nc(-c3ccc(C(C)NCC(=O)O)cc3)no2)ccc1-c1ccccc1C(F)(F)F (centres unmarked) [Example 23, N-[1-(4-{5-[2-methyl-2′-(trifluoromethyl)biphenyl-4-yl]-1,2,4-oxadiazol-3-yl}phenyl)ethyl]glycine, hydrochloride salt]
46 | – | 5.95e-10 | – | 5.84e-08 | Cc1ccccc1-c1ccc(-c2nc(-c3cccc(C(C)N(C)[C@@H](C)C(=O)O)c3)no2)cc1C(F)(F)F (some centres unmarked) [Example 29, N-methyl-N-[1-(3-{5-[2′-methyl-2-(trifluoromethyl)biphenyl-4-yl]-1,2,4-oxadiazol-3-yl}phenyl)ethyl]alanine, hydrochloride salt]
7.58 | – | 1.69e-09 | – | 4.33e-07 | Cc1ccccc1-c1ccc(-c2nc(-c3ccc(C(C)NCC(=O)O)cc3)no2)cc1C(F)(F)F (centres unmarked) [Example 32, N-[1-(4-{5-[2′-methyl-2-(trifluoromethyl)biphenyl-4-yl]-1,2,4-oxadiazol-3-yl}phenyl)ethyl]glycine, hydrochloride salt]
